# Test results: the METLIN SMRT retention time set (Domingo-Almenara et al. 2019)
# Experiment: gradient 5% acetonitrile 3 min, to 50% in 2 min, to 85% in 15 min, held 3 min, 100 µL/min
# Settings: column: Zorbax Extend-C18 2.1 x 50 mm; eluents: water / acetonitrile, 0.1% formic acid
# How it was run: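 Using water and acetonitrile that each contained 0.1% formic acid, mixtures of ~100 pure standards were separated at 100 μL/min on a Zorbax Extend-C18 column (2.1 × 50 mm, 1.8 μm). The HPLC fed a quadrupole time-of-flight mass spectrometer working in positive and negative ionization mode, with dead and dwell volumes of 40 μL and 900 μL. Data were acquired over 3 months. Retention time was read from computationally picked adduct peaks after manual inspection of each.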
row,RP-LC retention time [s],SMILES
1,604,CCN1C(=O)c2cc(C(=O)N3CCC(N4CCCCC4)CC3)nn2CC1(C)C(=O)NC1CCCC1 (centres undefined)
2,1050,COC(=O)c1ccccc1NC1=NS(=O)(=O)C(c2ccc(F)cc2)=C1C
3,583,Cc1oc(C2CCC2)nc1C(=O)N1CCN(Cc2ccc3c(c2)OCO3)CC1
4,645,COCCNc1c(C(=O)OC)c(=O)[nH]c2c(Cl)cccc12
5,570,c1cc(-c2noc(COC3CCCN(Cc4ccoc4)C3)n2)ccn1 (centres undefined)
6,1020,CC(C)Cn1cc(S(=O)(=O)Nc2ccccc2Cl)c2cccnc21
7,594,CCCN1CCN(CCCNC(=O)c2noc3c2CCCCC3)CC1
8,752,O=C(c1ccccc1)N1C[C@@H]2C[C@H]1C[C@@H]2NS(=O)(=O)c1ccccc1
9,580,CC(C)NC(=O)C1CCN(c2cncnc2N(C)C)CC1
10,840,O=C(Cn1c(=O)c2cc(-c3ccco3)nn2c2ncccc21)Nc1ccc(F)cc1F
11,857,Cc1ccc(-c2cc3n(n2)CCCN(C(=O)Cc2ccsc2)C3)cc1
12,597,CSCc1noc(Cn2ccc3ccn(CCN(C)C)c3c2=O)n1
13,762,Clc1ccc(-c2ccc(CNCc3ccc4c(c3)OCO4)o2)cc1
14,553,O=C1CCC2(C(=O)NCCN3CCOCC3)CCCC=C2N1c1ccccc1 (centres undefined)
15,894,COc1ccc2c(c1)CC(C(=O)NCc1ccc(OC)cc1OC)CO2 (centres undefined)
16,580,COCCN1CC2CN(C(=O)Nc3ccc4c(c3)OCCO4)CC(C1)O2
17,1280,CCCCn1nnc(NCc2ccc(-c3ccc(Cl)cc3Cl)o2)n1
18,731,O=C(NCc1cccs1)NCC1CN(c2cccc(Cl)c2)C(=O)O1 (centres undefined)
19,638,CCc1nnc2nc(N3CCN(C(=O)c4ccc(Br)cc4)CC3)cc(C)n12
20,610,CC(C)n1cnc2cc(CNC(=O)c3cc(F)ccc3F)ccc21
21,785,COc1ccc(C(F)(F)F)cc1NC(=O)CCCSc1ccc(NC(C)=O)nn1
22,899,O=C(Cn1cccc1-c1nc(-c2ccccc2)cs1)N1CCN(C(=O)c2ccco2)CC1

row,RP-LC retention time [s],SMILES
1,866,CC1CCN(C(=O)c2nnc(-c3ccc(S(=O)(=O)N4CCOCC4)cc3)o2)CC1
2,658,CN(C)c1ccc(CNC(=O)c2nnc(-c3ccc(S(=O)(=O)N(C)C)cc3)o2)cc1
3,597,CCOC(=O)C1=C(CN2CCCC2)NC(=O)NC1c1ccc(OC)cc1 (centres undefined)
4,698,Cc1ccc(-c2nc(-c3ccc4c(c3)ncn4CCN3CCOCC3)no2)c(C)c1
5,621,O=c1n(CC2CC2)nc2n1CCC(NS(=O)(=O)c1cccnc1)CC2 (centres undefined)
6,922,Cn1nc(-c2nnc(-c3ccc(F)cc3)o2)c2c1CCN(S(=O)(=O)c1cc(F)cc(F)c1)C2
7,742,O=C(NC1CCN(c2nnc3ccccn23)CC1)c1cc2c(s1)CCCC2
8,849,CCCC(=O)NCCc1c(I)[nH]c2ccc(OC)cc12
9,795,COCc1nc(C2CCN(S(=O)(=O)Cc3ccccc3)C2)no1 (centres undefined)
10,722,Cc1ccc(NC(=O)N2CCC(N(C(=O)C3CC3)C3CCOCC3)CC2)c(C)c1
11,680,Cc1ccnc(N2CCC(C(=O)NCCSCc3ccco3)CC2)n1
12,675,CC(=O)Nc1ccc2c(c1)CN(C(=O)c1ccccc1C(F)(F)F)C(C(=O)N(C)C)C2 (centres undefined)
13,668,CCc1nc2cc3c(cc2n1CC(=O)N1C(C)CCCC1C)OCCO3 (centres undefined)
14,576,Cc1noc(CNC(=O)Cn2cnc3ccccc3c2=O)n1
15,794,CCCn1cc(CCNC(=O)c2cc3ccccc3[nH]2)c2cccnc21
16,818,CCCn1c(=O)sc2cc(S(=O)(=O)N3CCC(C(=O)NC(C)C)CC3)ccc21
17,585,O=C1NC(C(=O)NCCCn2cccn2)Cn2cccc21 (centres undefined)
18,692,COCCCNC(=O)Cn1c(=O)n(-c2ccc(C)cc2)c2ncccc21
19,896,CC1=C(c2ccccc2)S(=O)(=O)N=C1N1CCCN(C(=O)c2ccc(Cl)s2)CC1
20,989,Cc1ccc(-c2noc(C3CCCN3C(=O)C3CC(=O)N(c4ccc(C)cc4)C3)n2)cc1 (centres undefined)
21,683,COc1ccc(-c2cc3n(n2)C(NC2CC2)CNC3=O)cc1 (centres undefined)
22,731,CC(=O)N1CCc2cc(C)c(S(=O)(=O)Nc3cccc(F)c3)cc21

row,RP-LC retention time [s],SMILES
1,639,O=C(CCCc1ccccc1)N1CCN(c2nc(CN3CCOCC3)cs2)CC1
2,835,CC(C(=O)N1CCN(c2ccccn2)CC1)n1nc(-c2ccccc2)c2cc(Cl)ccc21 (centres undefined)
3,670,CC(=O)Nc1ccc(SCCCC(=O)Nc2ncc([N+](=O)[O-])s2)nn1
4,645,O=C(NCCCN1CCN(c2ccc(F)cc2)CC1)C1CCCN(c2nc3cccnc3s2)C1 (centres undefined)
5,1020,COc1ccc(CNC(=O)C2CCCN(c3nccnc3Sc3ccccc3)C2)c(OC)c1 (centres undefined)
6,841,Cc1cccc(C2CCCN2C(=O)c2nc3nc(C)cc(C(F)F)n3n2)c1 (centres undefined)
7,1210,c1ccc(-c2csc(Nc3nc(NCc4ccco4)nc(N4CCCCC4)n3)n2)cc1
8,986,CC(C)N1C(=O)C(C)(C(=O)Nc2ccc(F)cc2)Oc2cccnc21 (centres undefined)
9,823,O=c1c(S(=O)(=O)N2CCCC2)cccn1Cc1cccc(F)c1
10,837,CCOC(=O)c1c(C)[nH]c(CCC(=O)NCCc2c[nH]c3ccc(OC)cc23)c1C
11,594,CCC(C(=O)NCCCN1CCN(CC)CC1)n1c2ccccc2c2cnn(C)c(=O)c21 (centres undefined)
12,1340,O=C(CCC1CCCC1)Nc1nc(-c2ccc3ccccc3c2)cs1
13,743,COc1ccccc1CNC1=NCCNC12CCN(S(=O)(=O)c1ccc(C)cc1)CC2
14,839,CCOC(=O)C(C#N)C(=N)C1C(=O)OC2CCCCC21 (centres undefined)
15,922,CCc1cccc(NC(=O)COc2cc(C)nc(N3CCN(c4ccccc4)CC3)n2)c1
16,878,CC1CCN(S(=O)(=O)N2CCC(C(=O)N3CCCC(c4nc(C5CCOCC5)no4)C3)CC2)CC1 (centres undefined)
17,601,COc1ccc(-c2noc(Cn3ccnc3)n2)cc1
18,818,O=C(c1ccc(Cl)cc1Cl)N1CC(c2nc(C3CC3)no2)C1
19,1110,Cc1ccccc1-c1noc(CCc2nnc3ccc(N4CCN(c5ccc(F)cc5)CC4)nn23)n1
20,946,CC(=O)N1CCc2c(sc(NC(=O)C3(c4ccc(Cl)cc4)CCCC3)c2C#N)C1
21,701,COc1ccc(NC(=O)NCCn2c(C(F)(F)F)nc3cccnc32)cc1
22,696,O=C(Nc1ccc(F)cc1F)C1CCN(C(=O)c2cccn2-c2cccnc2)CC1

row,RP-LC retention time [s],SMILES
1,675,CC(C(=O)N1CCN(c2ccccn2)CC1)C1CCN(C(=O)c2cc3cc(Cl)ccc3[nH]2)CC1 (centres undefined)
2,640,CCSc1nnc(NC(=O)CSc2nn3c(=O)c(C)nnc3s2)s1
3,796,Cc1nn(CC(=O)Nc2ccc(Cl)cc2F)c(=O)c2noc(C)c12
4,574,CCc1nnc2nc(N3CCN(C(=O)c4cccc(N(C)C)c4)CC3)cc(C)n12
5,638,COc1cc(Cl)ccc1C(=O)N1CCN(c2nc3ccncc3n(C)c2=O)CC1
6,902,CCn1cc(C(=O)Nc2cccc(C)c2)c(S(=O)(=O)N2CCSCC2)n1
7,556,CCN1CCCC1CNC(=O)C1c2ccccc2C(=O)N(CCOC)C1c1cccs1 (centres undefined)
8,678,Cc1cccc(NC(=O)Cc2nnc(-c3cnccn3)o2)c1C
9,686,Cc1ccc2nc(N3CCN(Cc4ccccc4)CC3)c(-c3noc(C)n3)cc2c1
10,737,Cc1cc2[nH]c(C(=O)Nc3cc(F)c(F)c(F)c3)c(CN3CCOCC3)c2s1
11,970,COc1cccc(-c2noc(Cn3c(=O)n(-c4cccc(OC)c4)c(=O)c4sccc43)n2)c1
12,974,O=C(CCn1nnc2cc(-c3noc(-c4ccc(C(F)(F)F)cc4)n3)ccc21)N1CCOCC1
13,590,O=C([C@@H]1C[C@H](F)CN1C(=O)c1ccccc1)N1CCOCC1
14,580,Cc1cc(-c2csc(S(=O)(=O)NCCCN3CCN(C)CC3)c2)on1
15,891,O=C(C1CCN(c2ncnc3c2oc2ccccc23)CC1)N1CCN(c2ccc(Cl)cc2)CC1
16,759,CCCC(=O)NCCn1c(=O)n(Cc2ccc(C)cc2)c2cccnc21
17,1050,Cc1ccc(NC(=O)N2CCCC2c2nc(-c3ccc(F)cc3F)no2)cc1C (centres undefined)
18,1280,Cc1ccc(S(=O)(=O)c2cnc(N3CCN(c4ccccc4Cl)CC3)nc2N)cc1C
19,675,COc1ccc(C2C(C(=O)N3CCCCC3)=C(C)NC3=C2C(=O)CC(C)(C)C3)cc1OC (centres undefined)
20,598,Cc1cc(N2CCCC2)n2nc(CN3CCc4ccccc4C3)nc2n1
21,782,CCOc1ccc(C(=O)Nc2ccc(Nc3ccc(-n4cccn4)nn3)cc2)cc1OCC
22,921,CCN(CC)S(=O)(=O)c1ccc2c(c1)CC(C(=O)NCCC1=CCCCC1)N2C(C)=O (centres undefined)

row,SMILES,RP-LC retention time [s]
1,CCCn1cc(C(=O)Nc2ccc(F)cc2C)c2cccnc21,882
